Values joined by “and” are separate entries in the source; they are usually repeats but may differ in a detail not shown here. Identical values can stand only once. “Also recorded” adds a separate entry of the source.
Tests used:
Wistar rats = assay: Thioacetamide (TAA)-induced fibrosis, model for hepatic cirrhosis; format: in vivo; settings: 5 mg/kg, co-administered with TAA during 10 weeks
Procedure: Liver fibrosis was induced in Wistar rats by intraperitoneal injections of TAA (20 mg/100 gr body weight) twice per week during 10 weeks. I.p. application of TAA results in hepatic centrolobular necrosis, elevated transaminase activity and robust liver fibrosis. Treatment groups further included co-administration of Aramchol™ (1 or 5 mg/kg orally) or obaticholic acid (OCA, 5 mg/kg). A control group of saline-treated rats (in the absence of TAA administration) was further included. Rats were then sacrificed, and livers were observed macroscopically for signs of cirrhosis and necrotic lesions, and microscopically, following Masson Goldner staining. The fibrosis score, calculated at a scale of 0-4, was determined for each sample, wherein 0 indicates no fibrosis and 4 indicates advanced fibrosis and cirrhosis.

[1] = Phase 1 single dose plasma exposure in healthy volunteers; format: in vivo, human; settings: for AUC: human, plasma, oral, AUC=AUCinf
Procedure: (§1) Table 1 summarizes the reported plasma exposure from three studies-single dose Phase I in healthy volunteers (30-900 mg, AUC=AUCinf); Phase II ARAMCHOL™ 003 repeat dose study (AUC on D84 from 100 & 300 mg QD), Phase IIb Cmin on D84 (400 and 600 mg QD).
Biovailability relative to 30 […] has been calculated as (AUC/Dose)/(AUC/30 mg) and is plotted for this group in FIG. 11.

[2] = Modelling and simulation of 300 mg BID and 600 mg QD doses in patients (Phoenix 64, single compartment); design: species or system human; settings: correction for sub-proportional PK
Procedure: Given the sub-proportional exposure generally seen, splitting the same total daily dose into two BID doses is likely to increase plasma AUC. The aim of this analysis was to model this behavior.
The 300 mg data on day 1 and day 84 in patients (Phase 2 ARAMCHOL™ 003) has been modelled in Phoenix 64@ assuming single compartment pharmacokinetics (parameterized by Cl and V) and first order absorption at a rate Ka with a delay, Tlag. The fitted model parameters all have a CV<25% and the predicted concentration data reasonably capture the observed data as shown in FIGS. 13A-13C.
To predict exposure at 600 mg, a correction for sub-proportional PK (lower bioavailability at higher dose) has been made assuming the same non-linearity at observed in healthy volunteers.

[3] = Phase 2 ARAMCHOL 003 repeat dose plasma exposure in patients; format: in vivo, human; settings: for AUC/Dose / Relative bioavailability (AUC/Dose normalized to 30 mg HV data) / AUC at 84 day: patients; for AUC/Dose / Relative bioavailability (AUC/Dose normalized to 30 mg HV data): D84; for AUC at 84 day: human, plasma, oral
Procedure: as §1
Exposure in patients is also sub-proportional from 100 to 300 mg. […] This may be due to the use of a tablet formulation in the patient study versus the powder/suspension in healthy volunteers or may simply reflect a high degree of inter-subject variability (typically exposure CV is >50% within a study group).

exposure (AUC) of single 900 mg dose higher than single 300 mg dose [1]: 1.35 fold
decrease in AUC/Dose across the dose range ([1]; 30-900 mg): four-fold
AUC ([1]; single dose 30 mg): 11900 ng·h/mL
AUC ([1]; single dose 100 mg): 25700 ng·h/mL
AUC ([1]; single dose 300 mg): 64300 ng·h/mL
AUC ([1]; single dose 900 mg): 86900 ng·h/mL
AUC/Dose ([1]; single dose 30 mg): 397 ng/mL · h/(mg/kg)
Relative bioavailability (AUC/Dose normalized to 30 mg HV data) ([1]; single dose 30 mg): 1
AUC/Dose ([1]; single dose 100 mg): 257 ng/mL · h/(mg/kg)
Relative bioavailability (AUC/Dose normalized to 30 mg HV data) ([1]; single dose 100 mg): 0.65
AUC/Dose ([1]; single dose 300 mg): 214 ng/mL · h/(mg/kg)
Relative bioavailability (AUC/Dose normalized to 30 mg HV data) ([1]; single dose 300 mg): 0.53 and 0.54
AUC/Dose ([1]; single dose 900 mg): 97 ng/mL · h/(mg/kg)
Relative bioavailability (AUC/Dose normalized to 30 mg HV data) ([1]; single dose 900 mg): 0.24
relative bioavailability at 600 mg compared to 300 mg [2]: approximately 0.75 fold
AUC/Dose ([3]; 100 mg QD repeat dose): 197 ng/mL · h/(mg/kg)
Relative bioavailability (AUC/Dose normalized to 30 mg HV data) ([3]; 100 mg QD repeat dose): 0.50
steady-state AUC in patients lower than AUCinf from a single dose in healthy volunteers ([3]; 300 mg): approximately 2 fold
AUC/Dose ([3]; 300 mg QD repeat dose): 110 ng/mL · h/(mg/kg)
Relative bioavailability (AUC/Dose normalized to 30 mg HV data) ([3]; 300 mg QD repeat dose): 0.28
AUC at 84 day ([3]; 100 mg QD repeat dose, AUC on D84): 19700 ng·h/mL
AUC at 84 day ([3]; 300 mg QD repeat dose, AUC on D84 (steady-state)): 33000 ng·h/mL
exposure CV within a study group ([3]; typically, inter-subject variability): > 50%
SMILES: CCCCCCCCCCCCCCCCCCCC(=O)N[C@H]1CC[C@@]2(C)[C@@H](C1)C[C@@H](O)[C@@H]1[C@@H]2C[C@H](O)[C@]2(C)[C@@H]([C@H](C)CCC(=O)O)CC[C@@H]12 [Aramchol™, 3β-arachidylamido-7α, 12α-dihydroxy-5β-cholan-24-oic acid]
TAA induced fibrosis (Wistar rats): significantly prevented
development of necrosis and cirrhosis (macroscopic) (Wistar rats): reduced significantly; also recorded: significantly inhibited
fibrotic score and collagen distribution in the tissue (Masson Goldner staining) (Wistar rats; score scale 0-4): reduced significantly

From US20250332176A1, “TREATMENT FOR FIBROSIS AND INHIBITION OF FIBROSIS” (GALMED RESEARCH AND DEVELOPMENT LTD, priority 2022, published 2025)
